Laboratory results as given in ChEMBL document CHEMBL1201862, “PubChem BioAssay data set” (2004).
The source made the active and inactive calls.

What was measured:
[1] = target: Cyclin-dependent kinase 5/CDK5 activator 1 (Homo sapiens, UniProt Q00535); experiment: blockade of human CDK5 activity – biochemical, cherry-picked samples, set 2, dose response (AID 504545)
[2] = luciferase reporter signal suppression in cells – H4 neuroglioma cells, luminescence, dose response (AID 1990); type: functional, cell-based
[3] = luciferase reporter signal reduction – luminescence, H4-C neuroglioblastoma cells, dose response (AID 2458); type: functional, cell-based;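 note: H4 neuroglioblastoma cells stably carrying a luciferase reporter gene fusion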
[4] = test system: Streptococcus sp. 'group A'; experiment: Streptococcus pyogenes SK(-)GAS viability under kanamycin – luminescence, BacTiterGlo, confirmation, counter-screen for streptokinase expression inhibitor project, dose response (AID 1900); type: functional, organism-based
cells [5] = type: functional, cell-based
[6] = alpha-synuclein stem-loop luciferase translation blockers – H4 neuroglioma cells, luminescence, confirmation (AID 1988); type: functional, cell-based
Streptococcus = experiment: GAS UMAA2166 growth inhibition – luminescence, BacTiterGlo, counter-screen for streptokinase expression inhibitor project, dose response (AID 1915); type: functional, organism-based;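 note: potency for reduction of bacterial viability or growth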
[7] = alpha-synuclein stem-loop translation blockers – luminescence, H4 neuroglioblastoma cells, dose confirmation, confirmation (AID 2454); type: functional, cell-based;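 note: H4 neuroglioblastoma cells carrying an alpha-synuclein 5'UTR luciferase reporter; potency for inhibition of the luciferase signal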
[8] = THP-1 cell cytotoxicity, dose response, cytotoxicity control for non-replicating M. tuberculosis project (AID 489025); type: functional
[9] = HepG2 cell cytotoxicity, dose response, cytotoxicity control for non-replicating M. tuberculosis project (AID 489018); type: functional; conditions: Mycobacterium tuberculosis
[10] = Vero E6 cell cytotoxicity, dose response, cytotoxicity control for non-replicating M. tuberculosis project, secondary assay (AID 492998); type: functional, VeroE6; conditions: Vero C1008
[11] = HEK-293T viability loss after treatment – luminescence, T-cell screen hits, cytotoxicity control for TCR NF-kB inhibitor project, dose response (AID 489026); type: functional, cell-based;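 note: cells exposed to compound about 14 hours before the viability readout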
[12] = target: T1, Heat shock factor protein 1 (Mus musculus, UniProt P38532); experiment: enhancement of HSF1-driven luciferase signal – cell-based, NIH3T3, luminescence, dose retest, confirmation (AID 435004); type: functional;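 note: stress induced by proteasome inhibitor MG132 added 30 min after compound; luciferase reporter driven by HSF1 response element in NIH3T3 cells; actives raise luminescence as potentiators of the MG132 stress response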
T1 sequence (P38532 whole entry): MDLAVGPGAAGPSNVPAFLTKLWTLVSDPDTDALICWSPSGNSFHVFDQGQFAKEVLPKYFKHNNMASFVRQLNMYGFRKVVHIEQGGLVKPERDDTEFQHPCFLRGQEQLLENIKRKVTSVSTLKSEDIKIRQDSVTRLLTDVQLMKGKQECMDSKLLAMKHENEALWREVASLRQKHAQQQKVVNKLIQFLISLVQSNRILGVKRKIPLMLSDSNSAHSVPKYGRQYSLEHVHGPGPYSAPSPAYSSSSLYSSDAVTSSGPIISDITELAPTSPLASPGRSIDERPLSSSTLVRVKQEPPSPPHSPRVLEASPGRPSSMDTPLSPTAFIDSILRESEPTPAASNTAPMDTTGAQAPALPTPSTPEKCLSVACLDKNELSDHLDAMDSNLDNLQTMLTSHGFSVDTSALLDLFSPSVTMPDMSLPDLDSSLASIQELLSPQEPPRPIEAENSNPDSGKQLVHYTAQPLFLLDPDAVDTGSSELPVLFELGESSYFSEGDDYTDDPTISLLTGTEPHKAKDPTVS

cells [13] = type: functional
[14] = target: T2, DNA repair and recombination protein RAD54-like (Homo sapiens, UniProt Q92698); experiment: RAD54 Holliday junction migration blockers – biochemical, fluorescence, cherry-picked samples, dose series, confirmation (AID 651657); type: functional
T2 sequence (Q92698 whole entry): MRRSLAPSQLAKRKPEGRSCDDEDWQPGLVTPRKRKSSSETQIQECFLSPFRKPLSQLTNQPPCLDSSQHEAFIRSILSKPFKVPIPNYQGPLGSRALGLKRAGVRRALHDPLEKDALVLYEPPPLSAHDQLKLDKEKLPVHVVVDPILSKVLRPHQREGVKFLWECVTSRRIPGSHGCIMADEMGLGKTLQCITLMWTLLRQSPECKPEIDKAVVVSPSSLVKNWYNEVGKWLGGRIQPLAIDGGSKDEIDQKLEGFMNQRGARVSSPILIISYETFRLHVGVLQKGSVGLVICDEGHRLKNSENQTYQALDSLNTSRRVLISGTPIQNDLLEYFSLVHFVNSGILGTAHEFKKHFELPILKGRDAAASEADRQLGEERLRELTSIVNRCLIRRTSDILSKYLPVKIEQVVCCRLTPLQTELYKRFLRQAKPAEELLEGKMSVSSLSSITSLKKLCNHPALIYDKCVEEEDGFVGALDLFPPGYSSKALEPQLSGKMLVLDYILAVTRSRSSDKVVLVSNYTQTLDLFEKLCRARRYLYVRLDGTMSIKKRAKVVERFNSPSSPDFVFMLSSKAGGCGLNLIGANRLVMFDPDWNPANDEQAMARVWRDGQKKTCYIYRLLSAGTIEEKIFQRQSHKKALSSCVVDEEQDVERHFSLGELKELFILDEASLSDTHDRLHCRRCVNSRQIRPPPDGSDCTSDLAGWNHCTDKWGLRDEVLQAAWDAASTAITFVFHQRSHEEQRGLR

[15] = Luminescence Cell-Based Dose Response HTS to Identify Activators of Luciferase Translation or Activity in H4 […] Cells. [Related pubchem assays: 1829 (Project Summary), 1814 (Primary HTS)]; type: functional
[16] = target: Neuropeptides B/W receptor type 1 (Homo sapiens, UniProt P48145); experiment: Fluorescence-based dose response cell-based high throughput screening assay to identify antagonists of the G-protein coupled receptor 7 (GPR7). [Related pubchem assays: 1952 (Screening assay (GPR7 antagonists).), 1880 (Summary AID.)]; type: functional
Chain of Neuropeptides B/W receptor type 1 (P48145 whole entry): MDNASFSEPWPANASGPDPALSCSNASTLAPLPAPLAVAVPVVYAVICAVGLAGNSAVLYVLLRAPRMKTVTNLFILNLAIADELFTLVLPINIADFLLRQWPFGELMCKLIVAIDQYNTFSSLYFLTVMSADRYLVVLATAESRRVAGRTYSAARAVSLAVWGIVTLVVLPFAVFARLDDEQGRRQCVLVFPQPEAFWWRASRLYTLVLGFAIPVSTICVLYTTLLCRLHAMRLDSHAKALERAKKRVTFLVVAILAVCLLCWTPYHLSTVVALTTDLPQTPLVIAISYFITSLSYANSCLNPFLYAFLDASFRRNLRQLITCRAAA

[17] = target: Melanin-concentrating hormone receptor 1 (Homo sapiens, UniProt Q99705); experiment: Fluorescence-based counterscreen for antagonists of the G-protein coupled receptor 7 (GPR7): cell-based high throughput dose response assay to identify antagonists of the melanin-concentrating hormone receptor 1 (MCHR1).; type: functional
Chain of Melanin-concentrating hormone receptor 1 (Q99705 whole entry): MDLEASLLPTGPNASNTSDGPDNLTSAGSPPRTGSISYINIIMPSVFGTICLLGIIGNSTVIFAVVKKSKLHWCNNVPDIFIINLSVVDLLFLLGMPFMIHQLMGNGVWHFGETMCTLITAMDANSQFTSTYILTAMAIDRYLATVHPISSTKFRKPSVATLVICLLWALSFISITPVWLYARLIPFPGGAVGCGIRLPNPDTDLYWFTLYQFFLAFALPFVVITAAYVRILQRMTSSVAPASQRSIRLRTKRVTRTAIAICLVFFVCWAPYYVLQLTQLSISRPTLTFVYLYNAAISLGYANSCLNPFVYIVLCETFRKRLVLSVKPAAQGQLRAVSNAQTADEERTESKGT

Chain of Cyclin-dependent kinase 5/CDK5 activator 1 (Q00535 whole entry): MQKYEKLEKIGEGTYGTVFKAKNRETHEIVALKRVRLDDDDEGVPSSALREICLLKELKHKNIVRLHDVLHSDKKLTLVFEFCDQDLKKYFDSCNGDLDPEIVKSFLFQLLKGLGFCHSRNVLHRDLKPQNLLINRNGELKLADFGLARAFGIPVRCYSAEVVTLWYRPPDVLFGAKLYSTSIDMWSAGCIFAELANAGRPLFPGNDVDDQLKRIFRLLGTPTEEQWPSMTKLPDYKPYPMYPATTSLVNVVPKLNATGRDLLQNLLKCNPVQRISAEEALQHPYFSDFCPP
Chain of Cyclin-dependent kinase 5/CDK5 activator 1 (Q15078 whole entry, further chain): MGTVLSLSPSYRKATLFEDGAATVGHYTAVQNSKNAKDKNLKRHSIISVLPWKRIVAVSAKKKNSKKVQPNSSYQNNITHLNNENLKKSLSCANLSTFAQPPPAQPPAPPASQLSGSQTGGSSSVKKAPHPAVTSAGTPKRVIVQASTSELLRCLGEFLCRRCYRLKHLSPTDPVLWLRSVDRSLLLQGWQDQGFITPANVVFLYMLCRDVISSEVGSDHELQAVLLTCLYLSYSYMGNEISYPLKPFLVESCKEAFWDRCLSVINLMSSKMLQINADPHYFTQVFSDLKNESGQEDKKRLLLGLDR

Cc1cccc(Nc2nc(N)c([N+](=O)[O-])c(NCCO)n2)c1
AC50 [1]: 15.2 µM (active)

COC(=O)c1c(NC(=O)c2ccc([N+](=O)[O-])o2)sc2c1CCN(C(C)C)C2
EC50 [2]: > 120 µM (not active)
EC50 [3]: 1.29 µM (active)
EC50 [4]: 4.11 µM (active)
EC50 (cells [5]): 11.8 µM (active)
EC50 [6]: < 0.1 µM (active)
EC50 (Streptococcus): 7.32 µM (active)
EC50 [7]: 1.52 µM (active)
CC50 [8]: 1.5 µM (active)
CC50 [9]: 6.72 µM (active)
CC50 [10]: 0.37 µM (active)
IC50 [11]: > 80 µM (inactive)
EC50 [12]: 26 µM (active)
IC50 (cells [13]): 0.65 µM (active)
AC50 [14]: 43.4 µM (active)

Nc1nc(Nc2ccccc2F)sc1C(=O)c1ccccc1
EC50 [15]: 0.159 µM (active)
AC50 [1]: 60 µM (active)

O=C(NC1CCCCCCC1)C1c2ccccc2C(=O)N1Cc1cccs1 (centres undefined)
IC50 [16]: > 43.8 µM (not active)
IC50 [17]: 15.9 µM (not active)
